The results in this text go back to patent US20250114338A1, “TETRAHYDRO-PYRIDO[3,4-b]INDOLE ESTROGEN RECEPTOR MODULATORS AND USES THEREOF” (Genentech, Inc., priority 2014, published 2025).

What is called EC50 is the concentration giving half of the maximal effect.

One test relates to ER-alpha MCF7. As to the kind of experiment: ER-alpha MCF7 HCS EC50; stated as measured by in vitro cell proliferation assays of Examples 902 and 903. The class given is cell-based. Particulars: Homo sapiens, MCF7, MCF7 cells; Table 1. Put shortly:
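MCF7 cells seeded 1000-2000 cells/well for 16 h, then treated with nine-point 1:2 DMSO dilution series in quadruplicate at 37 °C, 5% CO2 for 4 days. Viable cells quantified by CellTiter-Glo ATP luminescence; EC50 calculated. Controls: fulvestrant at final 100 nM, DMSO 0.2% v/v.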
For `C[C@@H]1Cc2c([nH]c3ccccc23)[C@@H](c2ccc(OCCN3CC(CF)C3)nc2)N1CC(C)(C)F` [Example 111, (1R,3R)-2-(2-fluoro-2-methylpropyl)-1-(6-(2-(3-(fluoromethyl)azetidin-1-yl)ethoxy)pyridin-3-yl)-3-methyl-2,3,4,9-tetrahydro-1H-pyrido[3,4-b]indole], the EC50 came out at 0.898 nM.

The same test, now with this note: Homo sapiens, MCF7, MCF7 cells; Table 2.
On to `C[C@@H]1Cc2c([nH]c3ccccc23)[C@@H](c2ccc(OCCN3CC(CF)C3)cc2F)N1C(=O)C(C)(C)F` [Example 230, 2-fluoro-1-[(1R,3R)-1-[2-fluoro-4-[2-[3-(fluoromethyl)azetidin-1-yl]ethoxy]phenyl]-3-methyl-1,3,4,9-tetrahydropyrido[3,4-b]indol-2-yl]-2-methyl-propan-1-one], for which the EC50 was found to be 0.068 nM. On to `C[C@H]1Cc2c([nH]c3cc(F)ccc23)[C@H](c2c(F)cc(NC3CN(CCCF)C3)cc2F)N1C[C@@](C)(F)CO` [Example 415, (R)-3-((1S,3S)-1-(2,6-difluoro-4-((1-(3-fluoropropyl)azetidin-3-yl)amino)phenyl)-7-fluoro-3-methyl-3,4-dihydro-1H-pyrido[3,4-b]indol-2(9H)-yl)-2-fluoro-2-methylpropan-1-ol], for which the EC50 stood at 9.5 nM.

`C[C@@H]1Cc2c([nH]c3ccccc23)[C@@H](c2c(F)cc(OCCN3CC(CF)C3)cc2F)N1C[C@@](C)(O)CO` [Example 278, (2R)-3-[(1R,3R)-1-[2,6-difluoro-4-[2-[3-(fluoromethyl)azetidin-1-yl]ethoxy]phenyl]-3-methyl-1,3,4,9-tetrahydropyrido[3,4-b]indol-2-yl]-2-methyl-propane-1,2-diol]: the EC50 turned out to be 0.31 nM. As to `C[C@@H]1Cc2c([nH]c3ccccc23)[C@@H](c2c(F)cc(OC3CN(CCCF)C3)cc2F)N1C(=O)C(C)(C)F` [Example 222, 1-[(1R,3R)-1-[2,6-difluoro-4-[1-(3-fluoropropyl)azetidin-3-yl]oxy-phenyl]-3-methyl-1,3,4,9-tetrahydropyrido[3,4-b]indol-2-yl]-2-fluoro-2-methyl-propan-1-one], the concentration for a half-maximal effect (EC50) is 0.4 nM.

In the case of `C[C@@H]1Cc2c([nH]c3ccccc23)[C@@H](c2c(F)cc(NC3CN(CCCF)C3)cc2F)N1C[C@H](C)C(=O)O` [Example 367, (2S)-3-[(1R,3R)-1-[2,6-difluoro-4-[[1-(3-fluoropropyl)azetidin-3-yl]amino]phenyl]-3-methyl-1,3,4,9-tetrahydropyrido[3,4-b]indol-2-yl]-2-methyl-propanoic acid], the EC50 amounted to 8 nM. For the compound `C[C@@H]1Cc2c([nH]c3ccccc23)[C@@H](c2c(F)cc(OC3CN(CC4CCC4)C3)cc2F)N1CC(C)(C)F` [Example 189, (1R,3R)-1-[4-[1-(cyclobutylmethyl)azetidin-3-yl]oxy-2,6-difluoro-phenyl]-2-(2-fluoro-2-methyl-propyl)-3-methyl-1,3,4,9-tetrahydropyrido[3,4-b]indole], the EC50 is 1 nM. Same read-out and setting: next, `C[C@@H]1Cc2c([nH]c3ccccc23)[C@@H](c2c(F)cc(OC3CN(CC4(F)CC4)C3)cc2F)N1CC(C)(C)F` [Example 224, (1R,3R)-1-[2,6-difluoro-4-[1-[(1-fluorocyclopropyl)methyl]azetidin-3-yl]oxy-phenyl]-2-(2-fluoro-2-methyl-propyl)-3-methyl-1,3,4,9-tetrahydropyrido[3,4-b]indole]: 0.316 nM; `C[C@@H]1Cc2c([nH]c3ccccc23)[C@@H](c2c(F)cc(OCCN3CC(CF)C3)cc2F)N1` [Example 220, (1R,3R)-1-[2,6-difluoro-4-[2-[3-(fluoromethyl)azetidin-1-yl]ethoxy]phenyl]-3-methyl-2,3,4,9-tetrahydro-1H-pyrido[3,4-b]indole]: 7 nM. The same measure, in the same setting: with `C[C@@H]1Cc2c([nH]c3ccccc23)[C@@H](c2c(F)cc(OCCN3CC(CF)C3)cc2F)N1CC(C)(F)F` [Example 379, (1R,3R)-1-(2,6-difluoro-4-(2-(3-(fluoromethyl)azetidin-1-yl)ethoxy)phenyl)-2-(2,2-difluoropropyl)-3-methyl-2,3,4,9-tetrahydro-1H-pyrido[3,4-b]indole] the figure was 0.28 nM; with `C[C@@H]1Cc2c([nH]c3ccc(F)cc23)[C@@H](c2c(F)cc(OC3CN(CCCF)C3)cc2F)N1CC(F)(F)F` [Example 358, (1R,3R)-1-(2,6-difluoro-4-((1-(3-fluoropropyl)azetidin-3-yl)oxy)phenyl)-6-fluoro-3-methyl-2-(2,2,2-trifluoroethyl)-2,3,4,9-tetrahydro-1H-pyrido[3,4-b]indole], 0.417 nM. The same measure, in the same setting: with `C[C@@H]1Cc2c([nH]c3ccccc23)[C@@H](c2c(F)cc(OCCN3CC(CF)C3)cc2F)N1CC1CCCC1` [Example 216, (1R,3R)-2-(cyclopentylmethyl)-1-[2,6-difluoro-4-[2-[3-(fluoromethyl)azetidin-1-yl]ethoxy]phenyl]-3-methyl-1,3,4,9-tetrahydropyrido[3,4-b]indole] the figure was 1 nM; with `C[C@@H]1Cc2c([nH]c3ccccc23)[C@@H](c2cc(F)c(OC3CN(CCCCCF)C3)c(F)c2)N1CC(C)(C)F` [Example 338, (1R,3R)-1-[3,5-difluoro-4-[1-(5-fluoropentyl)azetidin-3-yl]oxy-phenyl]-2-(2-fluoro-2-methyl-propyl)-3-methyl-1,3,4,9-tetrahydropyrido[3,4-b]indole], 1 nM; with `C[C@@H]1Cc2c([nH]c3ccccc23)[C@@H](c2c(F)cc(OCCN3CC(CF)C3)cc2F)N1C(=O)C1CCCC1` [Example 149, cyclopentyl-[(1R,3R)-1-[2,6-difluoro-4-[2-[3-(fluoromethyl)azetidin-1-yl]ethoxy]phenyl]-3-methyl-1,3,4,9-tetrahydropyrido[3,4-b]indol-2-yl]methanone], 2.16 nM. For `C[C@@H]1Cc2c([nH]c3ccccc23)[C@@H](c2c(F)cc(OC3CN(C/C=C/F)C3)cc2F)N1CC(C)(C)F` [Example 308, (1R,3R)-1-[2,6-difluoro-4-[1-[(E)-3-fluoroallyl]azetidin-3-yl]oxy-phenyl]-2-(2-fluoro-2-methyl-propyl)-3-methyl-1,3,4,9-tetrahydropyrido[3,4-b]indole], the 50% effective concentration (EC50) was 0.127 nM. On to `C[C@@H]1Cc2c([nH]c3ccccc23)[C@@H](c2c(F)cc(OC3CN([C@H]4C[C@@H](O)C4)C3)cc2F)N1CC(C)(C)F` [Example 334, (1S,3s)-3-(3-(3,5-difluoro-4-((1R,3R)-2-(2-fluoro-2-methylpropyl)-3-methyl-2,3,4,9-tetrahydro-1H-pyrido[3,4-b]indol-1-yl)phenoxy)azetidin-1-yl)cyclobutanol], for which the EC50 stood at 0.13 nM. The same measure, in the same setting: with `C[C@@H]1Cc2c([nH]c3ccccc23)[C@@H](c2c(F)cc(OCCN3CC(CF)C3)cc2F)N1C[C@@H](CO)C(F)(F)F` [Example 318, (S)-2-(((1R,3R)-1-(2,6-difluoro-4-(2-(3-(fluoromethyl)azetidin-1-yl)ethoxy)phenyl)-3-methyl-1,3,4,9-tetrahydro-2H-pyrido[3,4-b]indol-2-yl)methyl)-3,3,3-trifluoropropan-1-ol] the figure was 1 nM. For `C[C@H](CN1[C@H](c2c(F)cc(OC3CN(CCCF)C3)cc2F)c2[nH]c3ccccc3c2C[C@H]1C)C(=O)O` [Example 348, (R)-3-((1R,3R)-1-(2,6-difluoro-4-((1-(3-fluoropropyl)azetidin-3-yl)oxy)phenyl)-3-methyl-1,3,4,9-tetrahydro-2H-pyrido[3,4-b]indol-2-yl)-2-methylpropanoic acid], the 50% effective concentration (EC50) is 1 nM.
